Results on twelve compounds are retold here after patent publication US8349896B2, “Aspirin-triggered lipid mediators” (The Brigham and Womens's Hospital, Inc., priority 2000, dated 2013).

Like-named read-outs stand apart in the source and are kept apart here.

In one experiment the test system is human PMN. As to the kind of experiment: LTB4-stimulated PMN transendothelial migration. The experiment is classed as cell-based. As to conditions: for potency relative to the compounds derived from EPA: similar to results of FIGS. 9A (transmigration) and 9C (air pouch), no data shown; for IC50: human PMN, FIG. 9A; for rank order of potency, inhibition of PMN migration: tested in parallel for direct comparison. The procedure: Human PMNs were freshly isolated from venous blood of healthy volunteers (that declined taking medication for 2 wk before donation; Brigham and Women's Hospital protocol no. 88-02642) by Ficoll gradient and enumerated. Human umbilical vein or microvascular ECs (HUVECs or HMVECs, respectively) were cultured for transendothelial migration (Reference 10), HMVEC monolayers (one, two, or three passages) were seeded (−2×10^5 cells/cm^2) on polycarbonate permeable supports precoated with 0.1% gelatin for incubations with NSAIDs and PUFA.

In experiment [1] the test system is PMN infiltration into murine dorsal air pouches. Description: TNF-α induced leukocyte/PMN infiltration into murine dorsal air pouch. The format is in vivo, FVB mice. The conditions noted are these: 100 ng intravenously into tail; TNF-α 100 ng/pouch; lavage at 4 h. The procedure: Inflammatory exudates were initiated with intrapouch injection of TNF-α (R&D Systems) into 6 d dorsal air pouches with (Reference 16) 6-8-wk-old male FVB mice (fed standard rodent diet 5001 containing 0.26% n-3 fatty acids) followed by ASA (500 μg) at 3.5 h and 300 μg C20:5/pouch at 4 h. At 6 h, pouches were lavaged (3 ml saline), and exudate cells were enumerated and activated 94 μM A23187, 37° C., 20 min). Inhibition of TNF-α-stimulated (100 ng/pouch, FVB strain) PMN infiltration with intravenous tail injection of either 18 R-hydroxyeicosapentaenoic acid (HEPE), 5, 12, 18R-HEPE, or 15-epi-LXA, analogue was determined (Reference 16) with pouch lavages taken at 4 h.

Experiment [2] has as its target T1, recombinant human LTB4 receptor (Homo sapiens, UniProt Q15722).
T1 construct: expressed in transfected cells
As to the kind of experiment: [3H]LTB4 competition binding, HEK-293 cells stably expressing receptor. As to conditions: HEK293 cells.

The target of a further experiment is T2, Recombinant Human COX-2 (Homo sapiens, UniProt P35354).
T2 construct: host or cells: Sf9 insect cells, baculovirus; microsomal fractions
T2 sequence (P35354 18-604): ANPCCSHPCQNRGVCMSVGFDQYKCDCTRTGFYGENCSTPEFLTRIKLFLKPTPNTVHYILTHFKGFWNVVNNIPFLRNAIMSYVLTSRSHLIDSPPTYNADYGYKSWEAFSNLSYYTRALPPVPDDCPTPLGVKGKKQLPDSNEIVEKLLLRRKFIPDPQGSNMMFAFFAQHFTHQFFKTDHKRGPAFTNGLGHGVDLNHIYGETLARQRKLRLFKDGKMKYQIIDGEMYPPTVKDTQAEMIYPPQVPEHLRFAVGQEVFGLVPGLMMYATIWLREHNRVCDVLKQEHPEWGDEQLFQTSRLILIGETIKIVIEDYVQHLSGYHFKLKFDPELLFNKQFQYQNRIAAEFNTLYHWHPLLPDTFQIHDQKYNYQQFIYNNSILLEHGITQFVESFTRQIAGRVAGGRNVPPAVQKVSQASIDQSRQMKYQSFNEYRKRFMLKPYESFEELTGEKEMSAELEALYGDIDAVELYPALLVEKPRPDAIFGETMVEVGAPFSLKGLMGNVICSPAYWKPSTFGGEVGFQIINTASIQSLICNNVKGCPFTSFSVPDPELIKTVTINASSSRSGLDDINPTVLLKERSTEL
Description: Conversion of PUFA to hydroxy compounds by recombinant COX-2 incubated with NSAID. The experiment is classed as biochemical. The conditions noted are these: for 11R-HEPE, conversion of n-3 C20:5 / 15R-HEPE, conversion of n-3 C20:5 / 18R-HEPE, conversion of n-3 C20:5: Table 2, mean amount +/− SEM. As to the method: Human recombinant COX-2 (a gift from Dr. R. A. Copeland, DuPont Merck, Wilmington, Del.) was overexpressed in […] (American Type Culture Collection) with microsomal fractions (˜8 μl) suspended in Tris (100 mM, pH 8.0) as in Reference 21. George, H. J., D. E. Van Dyk, R. A. Straney, J. M. Trzaskos, and R. A. Copeland. 1996. Expression purification and characterization of recombinant human inducible prostaglandin G/H synthase from baculovirus-infected insect cells. Protein Expres. Purif. 7:19-26. NSAIDs were incubated (i.e., ASA ˜1 mM) at 37° C. for 30 min before addition of PUFA (20 μM), and conversions were also monitored using 1-^14C-labeled C20:4 (See FIGS. 2A and 2B) or C20:5 (NEN Life Science Products) (See FIGS. 2C and 2D).

[3] abbreviates: PUFA 20 μM, ASA ~1 mM or NS398 100 uM, mean ± SEM.
Setting [4] is: PUFA 20 μM, ASA ~1 mM, mean ± SEM.
Setting [5] is: Table 1, PUFA 20 μM, ASA ~1 mM or NS398 100 uM, mean ± SEM.

T1 sequence (Q15722 whole entry): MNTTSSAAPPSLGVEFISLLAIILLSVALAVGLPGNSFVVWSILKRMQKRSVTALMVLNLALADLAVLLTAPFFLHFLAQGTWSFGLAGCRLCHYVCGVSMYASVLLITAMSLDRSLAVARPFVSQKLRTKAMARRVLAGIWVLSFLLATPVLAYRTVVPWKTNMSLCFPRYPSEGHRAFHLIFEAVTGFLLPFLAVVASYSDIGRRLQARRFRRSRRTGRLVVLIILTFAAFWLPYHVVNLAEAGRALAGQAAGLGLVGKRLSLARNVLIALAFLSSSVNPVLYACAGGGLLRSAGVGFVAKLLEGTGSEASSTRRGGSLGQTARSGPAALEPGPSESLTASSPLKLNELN

Regarding 19-hydroxy-DHA, the “potency relative to the compounds derived from EPA” value in the experiment with human PMN is given as “potencies equivalent to those described above for the compounds derived from EPA”.

Regarding `CC[C@@H](O)/C=C/C=C\C[C@@H](O)/C=C/C=C/C=C\[C@@H](O)CCCC(=O)O` [5,12,18R-triHEPE], in experiment [1], the “inhibition of PMN infiltration into murine dorsal air pouches (in words)” value (from here on “inhibition … (in words)”) is “potent inhibitor of PMN infiltration”. The IC50 is 500 nM in experiment [2] and 5 to 50 nM in the experiment on human PMN (read-out: apparent IC50, inhibition of LTB4-stimulated PMN transendothelial migration). Also, the “rank order of potency, inhibition of PMN migration” value with human PMN is recorded as 15-epi-LXA4 stable analogue >5,12,18R-tri-HEPE >18R-HEPE.

Take `CC/C=C\C/C=C\C=C\C(O)C/C=C\C/C=C\C/C=C\CCC(=O)O` (stereo not drawn) [13-hydroxy-DHA]: in the experiment with human PMN, the “potency relative to the compounds derived from EPA” value is recorded as “potencies equivalent to those described above for the compounds derived from EPA”.

Regarding `CC/C=C\C/C=C\CC(O)/C=C/C=C\C/C=C\C/C=C\CCC(=O)O` (stereo not drawn) [14-hydroxy-DHA], the “potency relative to the compounds derived from EPA” value with human PMN is listed as “potencies equivalent to those described above for the compounds derived from EPA”.

As to `O=C(O)CCC[C@H](O)[C@H](O)/C=C/C=C/C=C\C=C\[C@H](O)COc1ccc(F)cc1` [15-epi-LXA4 stable analogue, 15(5)-16(para-fluoro)-phenoxy-LXA4], in experiment [1], the “inhibition … (in words)” value was “potent inhibitor of PMN infiltration”. The “rank order of potency, inhibition of PMN migration” value with human PMN is 15-epi-LXA4 stable analogue >5,12,18R-tri-HEPE >18R-HEPE.

Take `CC/C=C\C=C\C(O)C/C=C\C/C=C\C/C=C\C/C=C\CCC(=O)O` (stereo not drawn) [16-hydroxy-DHA]: in the experiment on human PMN, the “potency relative to the compounds derived from EPA” value is “potencies equivalent to those described above for the compounds derived from EPA”.

Turning to `CC/C=C\CC(O)/C=C/C=C\C/C=C\C/C=C\C/C=C\CCC(=O)O` (stereo not drawn) [17-hydroxy-DHA], the “potency relative to the compounds derived from EPA” value in the experiment with human PMN is reported as “potencies equivalent to those described above for the compounds derived from EPA”.

In the case of `CCC(O)/C=C/C=C\C/C=C\C/C=C\C/C=C\C/C=C\CCC(=O)O` (stereo not drawn) [20-hydroxy-DHA], the “potency relative to the compounds derived from EPA” value with human PMN is on record as “potencies equivalent to those described above for the compounds derived from EPA”.

For the compound `CC(=O)Oc1ccccc1C(=O)O` [ASA, aspirin], on Recombinant Human COX-2 (C20:5), the “increase in 18R-HEPE on ASA acetylation of COX-2” value is “approximately twofold increase” and the “reduction in 11R-HEPE on ASA acetylation of COX-2” value is recorded as > 85%. At Recombinant Human COX-2 (setting [3]), the “11R-HETE (ω-9) generated from C20:4” value is 1.4 ± 1.6 ng/incubation and the “15R-HETE (ω-5) generated from C20:4” value came out at 234.0 ± 112.5 ng/incubation. On Recombinant Human COX-2 (setting [4]), the “9-HODE (ω-9) generated from C18:2” value was determined as 25.2 ± 17.8 ng/incubation and the “13-HODE (ω-5) generated from C18:2” value is recorded as 2.9 ± 0.6 ng/incubation. Moreover, at Recombinant Human COX-2 (setting [5]), the “11R-HEPE (ω-9) generated from C20:5” value is listed as 5.4 ± 3.3 ng/incubation, the “15R-HEPE (ω-5) generated from C20:5” value worked out at 16.8 ± 5.8 ng/incubation and the “18R-HEPE (ω-2) generated from C20:5” value came out at 16.2 ± 3.3 ng/incubation. Besides, on Recombinant Human COX-2, the “11R-HEPE, conversion of n-3 C20:5” value came to 5.5 ± 2.3 ng; the “15R-HEPE, conversion of n-3 C20:5” value was determined as 8.0 ± 5.6 ng; the “18R-HEPE, conversion of n-3 C20:5” value was 12.2 ± 4.6 ng.

With `CC(=O)Nc1ccc(O)cc1` [Acetaminophen], on Recombinant Human COX-2, the “11R-HEPE, conversion of n-3 C20:5” value is 6.7 ± 3.0 ng; the “15R-HEPE, conversion of n-3 C20:5” value stood at 4.6 ± 1.2 ng; the “18R-HEPE, conversion of n-3 C20:5” value is 5.5 ± 2.4 ng. The “reduction of levels of 15R- and 18R-HEPE versus absence of inhibitors” value on Recombinant Human COX-2 (recombinant COX-2 and C20:5, concentrations as high as 2 mM, n=3) was “three to eight times”.

For the compound `CC[C@@H](O)/C=C/C=C\C/C=C\C/C=C\C/C=C\CCCC(=O)O` [Compound 18R-HEPE, 18R-hydroxyeicosapentaenoic acid], the “inhibition … (in words)” value in experiment [1] is given as “some activity in vivo”. In experiment [2], the “competition with 3H-LTB4 (in words)” value is “did not”. Moreover, in the experiment on human PMN (read-out: IC50, inhibition of LTB4-stimulated PMN transendothelial migration), the IC50 was > 1000 nM. Moreover, the “rank order of potency, inhibition of PMN migration” value in the experiment with human PMN is reported as 15-epi-LXA4 stable analogue >5,12,18R-tri-HEPE >18R-HEPE.

Take `CC/C=C\C/C=C\C[C@@H](O)/C=C/C=C/C=C\[C@@H](O)CCCC(=O)O` [LTB5]: in experiment [2], the IC50 was 500 nM.
